Among the data in US9193728B2, “Fused tetracyclic pyrido [4,3-B] indole and pyrido [3,4-B] indole derivatives and methods of use” (Medivation Technologies, Inc., priority 2010, dated 2015) are inhibition values, retold here.

Assay [1] deals with T1, human recombinant histamine H1 receptor (Homo sapiens, UniProt P35367).
T1 construct: expressed in transfected cells; host or cells: CHO-K1
The assay is described as follows: Histamine H1 radioligand binding ([3H]Pyrilamine). As to conditions: compound at 1 μM; 1.2 nM [3H]Pyrilamine; read-out: Histamine Binding (1 μM) H1, percentage inhibition. The procedure: To evaluate in radioligand binding assays the activity of compounds of the invention, human recombinant histamine H1 receptor expressed in Chinese hamster ovary (CHO) K1 cells (De Backer, M. et al, Biochem. Biophys. Res. Comm. 197(3):1601, 1993) in a modified Tris-HCl buffer (50 mM Tris-HCl, pH 7.4, 2 mM MgCl2, 100 mM NaCl, 250 mM Sucrose) was used. Compounds of the invention were incubated with 1.2 nM [^3H]Pyrilamine for 180 min. at 25° C. Non-specific binding was estimated in the presence of 1 μM Pyrilamine. Receptor proteins were filtered and washed, the filters were then counted to determine [^3H]Pyrilamine specifically bound. Compounds were screened at 1 μM or lower, using 1% DMSO as vehicle. Biochemical assay results are presented as the percent inhibition of specific binding in Table 2.

Assay [2] addresses T2, human recombinant dopamine D2L receptor (Homo sapiens, UniProt P14416).
T2 construct: expressed in transfected cells; host or cells: CHO
Nature of the assay: Dopamine D2L radioligand binding ([3H]Spiperone). The note with it: compound at 1 μM; read-out: Dopamine (1 μM) D2L, percentage inhibition of ligand binding. The method, then:
To evaluate in radioligand binding assays the activity of compounds of the invention, human recombinant dopamine D2L receptor expressed in Chinese hamster ovary (CHO) cells (Grandy, D. et al, Proc. Natl. Acad. Sci. USA. 86:9762, 1989; Hayes, G. et al, Mol. Endocrinol. 6:920, 1992) in a modified Tris-HCl buffer (50 mM Tris-HCl, pH 7.4, 1.4 mM Ascorbic Acid, 0.001% BSA, 150 mM NaCl) was used. Compounds of the invention were incubated with 0.16 nM [^3H]Spiperone for 120 min. at 25° C. Non-specific binding was estimated in the presence of 10 μM Haloperidol. Receptor proteins were filtered and washed, the filters were then counted to determine [^3H]Spiperone specifically bound. Compounds were screened at 1 μM or lower, using 1% DMSO as vehicle. Biochemical assay results are presented as the percent inhibition of specific binding in Table 3.

The target in assay [3] is T3, human recombinant serotonin (5-Hydroxytryptamine) 5-HT2A receptor (Homo sapiens, UniProt P28223).
T3 construct: expressed in transfected cells; host or cells: CHO-K1
Nature of the assay: Serotonin 5-HT2A radioligand binding ([3H]Ketanserin). As to conditions: compound at 0.1 μM; read-out: Serotonin (0.1 μM) 5-HT2A, percentage inhibition of ligand binding. The procedure: To evaluate in radioligand binding assays the activity of compounds of the invention, human recombinant serotonin (5-Hydroxytryptamine) 5-HT2A receptor expressed in Chinese hamster ovary (CHO)-K1 cells (Bonhaus, D. et al, Br. J. Pharmacol. 115:622, 1995; Saucier, C. et al, J. Neurochem. 68:1998, 1997) in a 50 mM Tris-HCl buffer, pH 7.4, was used. Compounds of the invention were incubated with 0.5 nM [^3H]Ketanserin for 60 min. at 25° C. Non-specific binding was estimated in the presence of 1 μM Mianserin. Receptor proteins were filtered and washed, the filters were then counted to determine [^3H]Ketanserin specifically bound. Compounds were screened at 1 μM or lower, using 1% DMSO as vehicle. Biochemical assay results are presented as the percent inhibition of specific binding in Table 4.

Assay [4] deals with T4, human recombinant serotonin (5-Hydroxytryptamine) 5-HT2C receptor (Homo sapiens, UniProt P28335).
T4 construct: expressed in transfected cells; host or cells: CHO-K1
T4 sequence (P28335 33-458): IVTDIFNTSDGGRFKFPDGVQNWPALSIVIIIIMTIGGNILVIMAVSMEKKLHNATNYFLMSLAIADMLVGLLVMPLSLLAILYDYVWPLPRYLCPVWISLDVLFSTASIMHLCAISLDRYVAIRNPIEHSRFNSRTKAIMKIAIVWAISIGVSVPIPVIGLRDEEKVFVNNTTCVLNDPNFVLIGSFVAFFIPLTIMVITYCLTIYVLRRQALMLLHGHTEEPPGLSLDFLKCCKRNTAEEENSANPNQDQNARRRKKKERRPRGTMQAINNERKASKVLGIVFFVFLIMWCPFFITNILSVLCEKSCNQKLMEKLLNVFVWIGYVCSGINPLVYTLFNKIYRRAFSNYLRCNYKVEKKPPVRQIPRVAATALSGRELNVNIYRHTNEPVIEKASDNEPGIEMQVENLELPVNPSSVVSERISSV
Nature of the assay: Serotonin 5-HT2C radioligand binding ([3H]Mesulergine). The note with it: compound at 0.1 μM; read-out: Serotonin (0.1 μM) 5-HT2C, percentage inhibition of ligand binding. The procedure:
To evaluate in radioligand binding assays the activity of compounds of the invention, human recombinant serotonin (5-Hydroxytryptamine) 5-HT2C receptor expressed in Chinese hamster ovary (CHO)-K1 cells (Wolf, W. et al, J. Neurochem. 69:1449, 1997) in a modified Tris-HCl buffer (50 mM Tris-HCl, pH 7.4, 0.1% Ascorbic Acid, 10 μM Pargyline) was used. Compounds of the invention were incubated with 1 nM [^3H]Mesulergine for 60 min. at 25° C. Non-specific binding was estimated in the presence of 1 μM Mianserin. Receptor proteins were filtered and washed, the filters were then counted to determine [^3H]Mesulergine specifically bound. Compounds were screened at 1 μM or lower, using 1% DMSO as vehicle. Biochemical assay results are presented as the percent inhibition of specific binding in Table 4.

In assay [5] the target is T5, human recombinant serotonin (5-Hydroxytryptamine) 5-HT6 receptor (Homo sapiens, UniProt P50406).
T5 construct: expressed in transfected cells; host or cells: HeLa
Nature of the assay: Serotonin 5-HT6 radioligand binding ([3H]LSD). As to conditions: compound at 0.1 μM; read-out: Serotonin (0.1 μM) 5-HT6, percentage inhibition of ligand binding. The method, then: To evaluate in radioligand binding assays the activity of compounds of the invention, human recombinant serotonin (5-Hydroxytryptamine) 5-HT6 receptor expressed in human HeLa cells (Monsma, F. Jr. et al, Mol. Pharmacol. 43:320, 1993) in a modified Tris-HCl buffer (50 mM Tris-HCl, pH 7.4, 150 mM NaCl, 2 mM Ascorbic Acid, 0.001% BSA) was used. Compounds of the invention were incubated with 1.5 nM [3H]Lysergic acid diethylamide (LSD) for 120 min. at 37° C. Non-specific binding was estimated in the presence of 5 μM Serotonin (5-HT). Receptor proteins were filtered and washed, the filters were then counted to determine [3H]LSD specifically bound. Compounds were screened at 1 μM or lower, using 1% DMSO as vehicle. Biochemical assay results are presented as the percent inhibition of specific binding in Table 4.

For assay [6], the target named is T6, human recombinant serotonin (5-Hydroxytryptamine) 5-HT7 receptor (Homo sapiens, UniProt P34969).
T6 construct: expressed in transfected cells; host or cells: CHO
Nature of the assay: Serotonin 5-HT7 radioligand binding ([3H]LSD). The note with it: compound at 0.1 μM; read-out: Serotonin (0.1 μM) 5-HT7, percentage inhibition of ligand binding. The method, then:
To evaluate in radioligand binding assays the activity of compounds of the invention, human recombinant serotonin (5-Hydroxytryptamine) 5-HT7 receptor expressed in Chinese hamster ovary (CHO) cells (Roth, B. et al, J. Pharmacol. Exp. Ther. 268:1403, 1994; Shen, Y. et al, J. Biol. Chem. 268:18200, 1993) in a modified Tris-HCl buffer (50 mM Tris-HCl, pH 7.4, 10 mM MgCl2, 0.5 mM EDTA) was used. Compounds of invention were incubated with 5.5 nM [^3H]Lysergic acid diethylamide (LSD) for 120 min. at 25° C. Non-specific binding was estimated in the presence of 10 μM Serotonin (5-HT). Receptor proteins were filtered and washed, the filters were then counted to determine [^3H]LSD specifically bound. Compounds were screened at 1 μM or lower, using 1% DMSO as vehicle. Biochemical assay results are presented as the percent inhibition of specific binding in Table 4.

T3 sequence (P28223 whole entry): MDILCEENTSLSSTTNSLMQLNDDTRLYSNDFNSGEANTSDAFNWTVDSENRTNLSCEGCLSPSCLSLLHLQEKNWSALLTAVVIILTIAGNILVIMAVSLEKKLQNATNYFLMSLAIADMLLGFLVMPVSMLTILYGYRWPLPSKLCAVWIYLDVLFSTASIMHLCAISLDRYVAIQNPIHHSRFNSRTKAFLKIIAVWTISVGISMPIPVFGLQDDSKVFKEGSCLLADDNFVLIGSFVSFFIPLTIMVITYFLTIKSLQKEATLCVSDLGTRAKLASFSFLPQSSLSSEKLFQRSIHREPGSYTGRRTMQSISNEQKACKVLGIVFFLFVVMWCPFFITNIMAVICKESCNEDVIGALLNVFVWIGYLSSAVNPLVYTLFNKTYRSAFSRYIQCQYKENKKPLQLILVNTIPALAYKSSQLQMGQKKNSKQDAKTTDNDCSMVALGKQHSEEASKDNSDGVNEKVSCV
T1 sequence (P35367 whole entry): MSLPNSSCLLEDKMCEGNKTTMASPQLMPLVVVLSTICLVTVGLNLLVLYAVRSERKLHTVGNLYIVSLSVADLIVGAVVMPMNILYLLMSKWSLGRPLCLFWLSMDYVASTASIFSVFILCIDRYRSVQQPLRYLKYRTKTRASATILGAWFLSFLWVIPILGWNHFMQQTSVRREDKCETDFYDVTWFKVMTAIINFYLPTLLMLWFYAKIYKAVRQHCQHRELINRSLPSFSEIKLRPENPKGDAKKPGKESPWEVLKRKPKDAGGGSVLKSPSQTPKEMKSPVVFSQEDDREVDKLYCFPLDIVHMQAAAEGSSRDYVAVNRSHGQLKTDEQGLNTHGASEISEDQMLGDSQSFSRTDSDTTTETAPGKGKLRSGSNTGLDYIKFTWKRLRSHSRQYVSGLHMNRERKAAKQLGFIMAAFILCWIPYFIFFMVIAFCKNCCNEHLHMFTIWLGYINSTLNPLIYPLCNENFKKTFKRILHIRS
T2 sequence (P14416 whole entry): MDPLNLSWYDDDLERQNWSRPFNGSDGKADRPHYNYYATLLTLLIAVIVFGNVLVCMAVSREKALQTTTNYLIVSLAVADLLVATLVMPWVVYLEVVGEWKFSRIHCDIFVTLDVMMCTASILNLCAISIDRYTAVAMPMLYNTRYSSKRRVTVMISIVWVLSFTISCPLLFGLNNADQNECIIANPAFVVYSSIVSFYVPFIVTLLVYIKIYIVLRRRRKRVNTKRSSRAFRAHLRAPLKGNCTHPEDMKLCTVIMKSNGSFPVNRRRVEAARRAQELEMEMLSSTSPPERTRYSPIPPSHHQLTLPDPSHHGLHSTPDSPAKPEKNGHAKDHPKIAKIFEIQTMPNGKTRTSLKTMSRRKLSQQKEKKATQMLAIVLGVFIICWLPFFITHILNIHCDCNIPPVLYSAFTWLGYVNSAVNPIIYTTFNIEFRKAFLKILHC
T5 sequence (P50406 whole entry): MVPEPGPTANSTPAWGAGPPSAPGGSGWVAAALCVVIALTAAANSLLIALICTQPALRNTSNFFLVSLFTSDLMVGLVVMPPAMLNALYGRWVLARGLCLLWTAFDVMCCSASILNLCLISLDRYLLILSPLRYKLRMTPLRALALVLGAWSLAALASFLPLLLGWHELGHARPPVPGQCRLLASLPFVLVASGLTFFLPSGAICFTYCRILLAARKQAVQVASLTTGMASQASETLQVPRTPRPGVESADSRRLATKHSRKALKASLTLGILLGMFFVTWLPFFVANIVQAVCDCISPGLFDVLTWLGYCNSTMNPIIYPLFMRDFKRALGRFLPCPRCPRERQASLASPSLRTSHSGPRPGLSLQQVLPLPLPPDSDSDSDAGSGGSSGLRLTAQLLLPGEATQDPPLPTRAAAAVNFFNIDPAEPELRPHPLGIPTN
T6 sequence (P34969 whole entry): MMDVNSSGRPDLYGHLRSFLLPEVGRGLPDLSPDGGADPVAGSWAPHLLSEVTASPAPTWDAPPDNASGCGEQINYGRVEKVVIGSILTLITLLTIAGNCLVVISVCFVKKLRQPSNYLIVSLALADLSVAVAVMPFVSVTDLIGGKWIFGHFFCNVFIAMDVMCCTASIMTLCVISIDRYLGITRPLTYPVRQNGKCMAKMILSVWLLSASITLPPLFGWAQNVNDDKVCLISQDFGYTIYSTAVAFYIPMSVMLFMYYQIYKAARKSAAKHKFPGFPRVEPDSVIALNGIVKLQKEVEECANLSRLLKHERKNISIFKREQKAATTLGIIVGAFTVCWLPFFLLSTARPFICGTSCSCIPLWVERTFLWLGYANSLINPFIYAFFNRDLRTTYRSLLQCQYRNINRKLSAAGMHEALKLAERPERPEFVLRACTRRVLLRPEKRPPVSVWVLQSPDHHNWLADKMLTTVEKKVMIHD

For orientation: inhibition means the change of the read-out against control, counted positive when it falls. With `CN1CCc2c(c3cccc4c3n2CC(=O)N4)C1` [Compound 5], the inhibition at 1 µM was 5% in assay [1] and 21% in assay [2]. In addition, the inhibition at 0.1 µM in assay [3] is -4%; in assay [4], 13%; in assay [5] it was 4%; in assay [6] it was 4%.
On to `CN1CCc2c(c3cccc4c3n2C(c2ccccc2)C(=O)N4)C1` (stereo not drawn) [Compound 6], for which the inhibition at 1 µM in assay [1] was 46%; in assay [2] it was 41%. The inhibition at 0.1 µM in assay [3] is 12%; in assay [4] it was 7%; in assay [5], -6%; in assay [6], 30%.
On to `CN1CCc2c(c3cccc4c3n2CC(c2ccncc2)C4)C1` (stereo not drawn) [Compound 7], for which the inhibition at 1 µM in assay [1] is 92%; in assay [2], 54%. Also, the inhibition at 0.1 µM in assay [3] was 7%; in assay [4] it was -5%; in assay [5] it was -2%; in assay [6], 10%.
For the compound `CN1CCc2c(c3cccc4c3n2CCC4)C1` [Compound 8], the inhibition at 1 µM in assay [1] is 49%; in assay [2] it was 15%. For the same compound, the inhibition at 0.1 µM in assay [3] amounted to 30%; in assay [4], 48%; in assay [5] it was 9%; in assay [6], 14%.
Turning to `CN1CCc2c(c3cccc4c3n2CCO4)C1` [Compound 9, 8-methyl-1,2,7,8,9,10-hexahydro-[1,4]oxazino[2,3,4-hi]pyrido[4,3-b]indole], the inhibition at 1 µM was 31% in assay [1] and 10% in assay [2]. For the same compound, the inhibition at 0.1 µM in assay [3] stood at 11%; in assay [4], 20%; in assay [5] it was 12%; in assay [6], 2%.
As for `CN1CCc2c(c3cccc4c3n2CC(c2ccncc2)S4)C1` (stereo not drawn) [Compound 10], the results for the inhibition at 1 µM in assay [1] and in assay [2] were 84% and 32%, respectively. Also, the inhibition at 0.1 µM in assay [3] came to 23%; in assay [4], 8%; in assay [5], 23%; in assay [6] it was 12%.
Turning to `CN1CCc2c(c3cccc4c3n2CCS4)C1` [Compound 11, 8-methyl-1,2,7,8,9,10-hexahydropyrido[4,3-b][1,4]thiazino[2,3,4-hi]indole], the inhibition at 1 µM in assay [1] is 39%; in assay [2], 10%. The inhibition at 0.1 µM is 27% in assay [3], 57% in assay [4], 18% in assay [5] and -8% in assay [6].
As for `Cc1cc2c3c(c1)c1c(n3C(c3ccccc3)C2)CCN(C)C1` (stereo not drawn) [Compound 12], the results for the inhibition at 1 µM in assay [1] and in assay [2] were 101% and 44%, respectively. The inhibition at 0.1 µM in assay [3] was 90%; in assay [4] it was 102%; in assay [5], 59%; in assay [6], 81%.
In the case of `Cc1cc2c3c(c1)c1c(n3CC2)CCN(CCCC(=O)c2ccc(F)cc2)C1` [Compound 13], the inhibition at 1 µM in assay [1] turned out to be 64%; in assay [2] it was 91%. In addition, the inhibition at 0.1 µM in assay [3] was found to be 98%; in assay [4], 93%; in assay [5], 31%; in assay [6], 62%.
Take `O=C(CCCN1CCc2c(c3cccc4c3n2CCC4)C1)c1ccc(F)cc1` [Compound 14]: the inhibition at 1 µM was determined as 78% in assay [1] and 86% in assay [2]. Also, the inhibition at 0.1 µM is 99% in assay [3], 92% in assay [4], 21% in assay [5] and 58% in assay [6].
For `Cc1cc2c3c(c1)c1c(n3CC(c3ccccc3)O2)CCN(C)C1` (stereo not drawn) [Compound 15, 5,8-dimethyl-2-phenyl-1,2,7,8,9,10-hexahydro-[1,4]oxazino[2,3,4-hi]pyrido[4,3-b]indole], the figures for the inhibition at 1 µM in assay [1] and in assay [2] were 96% and 76%, respectively. The inhibition at 0.1 µM turned out to be 10% in assay [3], 4% in assay [4], 21% in assay [5] and 9% in assay [6].
With `CN1CCc2c(c3cccc4c3n2CC(c2ccc(F)cc2)C4)C1` (stereo not drawn) [Compound 16], the inhibition at 1 µM in assay [1] amounted to 78%; in assay [2], 91%. Moreover, the inhibition at 0.1 µM stood at 40% in assay [3], 34% in assay [4], 57% in assay [5] and 16% in assay [6].
With `Cc1ccc(C2Cn3c4c(c5cccc2c53)CN(C)CC4)cn1` (stereo not drawn) [Compound 210], the inhibition at 0.1 µM in assay [3] is 23%; in assay [5] it was 1%; in assay [6], 21%.
For `Cc1cc2c(-c3ccccc3)cn3c4c(c(c1)c23)CN(C)CC4` [Compound 211] the same measures were 50%, 47% and 78%.
